Reference: patent US8129337B2, “Compositions comprising epigallocatechin gallate and protein hydrolysate” (DSM IP Assets B.V., priority 2005, dated 2012)

Test system: db/db mice
Assay: Pathologically changed islets of Langerhans in pancreata of db/db mice after 10 weeks of diet
Format: in vivo, mouse
Details: 10 weeks of feeding the diet
Method: Diets containing EGCG, or protein hydrolysate, or the combination of EGCG and protein hydrolysate, or placebo were administered to db/db mice (6 weeks old). The db/db mouse model of severe type 2 diabetes mellitus is well established and commonly used to assess the antidiabetic properties of nutritional or pharmaceutical interventions. Furthermore, the animals are characterized by a progressive loss of pancreatic function and pathological changes of pancreatic histology and morphology. The pancreatic damage occurring in db/db mice is the consequence of high blood glucose and lipid levels. After 10 weeks of administration of the respective diets pancreata of all mice were removed and assessed for pathologically changed islets of Langerhans.

For `O=C(O[C@@H]1Cc2c(O)cc(O)cc2O[C@@H]1c1cc(O)c(O)c(O)c1)c1cc(O)c(O)c(O)c1` [EGCG, epigallocatechin gallate], the “Pathological islets (in % of total islets)” value (db/db mice (6 weeks old at start), n = 9 per group, means ± SEM) was 36.5 ± 4.1 % of total islets and the “Effect on pathologically changed islets of Langerhans compared to placebo (in words)” value (db/db mice) was “less pathologically changed islets of Langerhans compared to placebo”.
